Assay results taken from patent US20260123631A1, “NATURAL PORPHIN SALT AND USE THEREOF AS PLANT GROWTH REGULATOR AND PLANT IMMUNITY INDUCER” (NANJING BOSTEC BIOLOGICAL ENGINEERING CO., LTD, priority 2022, published 2026).

Tests used:
[1] = Water solubility of the prepared salts; type: physicochemical
[2] = Stability of sample solutions in the dark/under light; type: physicochemical; details: under light 30,000 lux, salts in water, acidic reference in 30% to 50% ethanol
Summary of the method: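 Salt in water, or acidic reference in 30–50% aqueous ethanol, at about 10 ppm; UV absorbance scanned 200–800 nm at 0, 1, 2, 3 h, stored at 25° C dark or under 30,000 lux light. Relative content = max-peak absorbance at each time divided by 0 h value (100%).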

chlorophyllase = assay: In vitro chlorophyllase-inhibiting activity test; type: biochemical, mung bean; details: substrate chlorophyll 120 ppm, sample 0.3 ppm to 30.0 ppm
Protocol: A chlorophyllase inhibition rate of a salt sample solution at each concentration was determined, and an IC50 value for a chlorophyllase inhibition activity of a salt sample was calculated.

mung bean seedlings = assay: Inducing adventitious roots from hypocotyls of mung bean; type: in vivo; details: day 7
Protocol: Test solution preparation: 8 mL of a commercially-available STANLEY universal hydroponic nutrient solution was taken and diluted with tap water to 3,200 mL (400-fold dilution) to produce a dilute nutrient solution. An appropriate amount of each of salt samples such as protoporphyrin disodium and potassium chlorhematin was weighed and prepared with the dilute nutrient solution into 0.010 ppm and 0.1 ppm sample test solutions, and 150 mL of each test solution was taken. 150 mL of the dilute nutrient solution was taken as a blank control. The test solutions and the control solution were placed in brown bottles, and the brown bottles were sealed with a black film. Mung bean seedlings with uniform growth and a seedling height of 7 cm to 8 cm were selected, and cut at 3 cm below a first true leaf node. 8 mung bean seedlings were inserted into each bottle (with roots removed) to make lower radicles soaked in a solution. Mung bean seedlings were treated at room temperature of 20° C. to 25° C. for 7 d in total, during which the solution was changed every 2 d. On day 2 to day 3 of the treatment, there was a significant difference. On day 7, the observation and determination were conducted. An average adventitious root number and an average total adventitious root length for each seedling were calculated, and results were shown in the following table: […]

wheat [3] = assay: Spraying on wheat to increase a yield; type: in vivo, wheat (Huaimai 35)
Protocol: Crop: Huaimai 35. […] On Jun. 11, 2021, the harvesting was conducted throughout the field at a time.

rice = assay: Germination of rice under salt stress; type: in vivo, rice (Nanjing 9108); details: sample 0.2 ppm; for Increase of root weight-promoting speed / Increase of root-shoot ratio / Increase of seedling weight-promoting rate: versus 4.5 g/L NaCl without sample
Protocol: The selected full seeds of rice (variety: Nanjing 9108) were soaked in a sodium hypochlorite solution to allow disinfection for 2 min to 3 min, and then rinsed with clear water twice to three times. After the rinsing, 50 full seeds were selected and fully immersed in a prepared seed-soaking solution at 25° C. for 48 h. The soaked seeds were transferred to a plastic box with two paper towel layers tiled. The germination bed was moistened with a salt solution at a concentration corresponding to each treatment. The seeds were incubated in a 25° C. incubator with a light cycle of 12 h light/12 h dark and a humidity of 70%, during which the germination bed was always kept moist. The germination of rice seeds and the growth of seedlings were observed and recorded day by day. A germination rate of each treatment was recorded on […], and a number of normal seedlings was counted on day 14. 10 seeds were randomly selected from each treatment to measure a seedling length, a root length, a root number, a root weight, and a seedling weight. The germination energy was counted on day 5 and a germination rate was counted on day 14.

rice seedlings = assay: Spraying on drought rice seedlings; type: in vivo, rice (Huiliangyou 473)
Protocol: Method: Full rice seeds were selected, disinfected with 6% sodium hypochlorite for 2 min to 3 min, then rinsed with water, soaked in clear water at room temperature (30±1° C.) until the germination was started, and then transferred to seedling trays to raise seedlings. About 15 d later, rice seedlings with consistent growth were selected and transferred into buckets to allow further growth, with 3 holes per bucket and 2 plants per hole. A soil was a clay loam. Before transplanting, the soil was crushed, sieved, and thoroughly mixed. […] The water, fertilizers, pests, and diseases during the cultivation in the seedling trays were uniformly managed.
Drought model: The transplanting was conducted on Aug. 18, 2020. The next day (August 19), the natural drought and sample-spraying treatment were started for rice seedlings. A soil moisture content was determined by the NY/T 52-1987 method.
After the drought stress and sample-spraying were started at a tillering stage (September 19) of rice, a chlorophyll content (mg/g) in leaves was detected twice on day 3 and day 6 (September 21 and September 25), respectively.

[4] = Dilution and pH determination for sample solutions; type: physicochemical
Protocol: Method: 0.2500 g of a sample was accurately weighed and added to a 25 mL volumetric flask, dissolved with purified water, and diluted to a specified scale to prepare a 1.00% (10,000.0 ppm) initial solution. The initial solution was diluted with purified water in different ratios to prepare a series of solutions with a concentration of 1,000.0 ppm to 0.1 ppm. A pH value of each sample was determined three times.

wheat [5] = assay: Germination of wheat and growth of seedlings; type: in vivo, wheat (Huaimai 35); details: for Root length / Root number / Root weight / Seedling height / Seedling weight: wheat seedlings
Protocol: Method: 3 replicates were set for each treatment. 50 full seeds with a consistent size were selected each time for each sample, disinfected with sodium hypochlorite for 5 min, rinsed with clear water, and placed in a plastic box filled with 100 g of a sand. 25 mL of a prepared sample solution was poured into the plastic box, and the seeds were arranged regularly. The plastic box was covered with a lid, and then incubated in a 25° C. incubator. The germination was determined when a length of a sprout of a wheat seed exceeded a half of a diameter (long axis) of the wheat seed (determination criterion). According to the growth of wheat, the germ exposure of seeds and the number of germinated seeds were recorded every day. On day 6, 10 wheat seedlings were randomly selected, and a root length, a plant height, and a root number were determined. On day 7, a root weight and an aboveground part weight were determined. All index data was produced based on 3 replicates.

pepper = assay: Spraying on pepper to increase a yield; type: in vivo, pepper (Hebei Jize pepper)
Protocol: Experimental method: A land area of 10 mu was adopted for each of experimental and control groups. A treatment group was sprayed with a potassium hematin solution, a control group was sprayed with heme (at the same dose concentration as the treatment group), and a blank was sprayed with clear water. On May 19 (after transplanting) and July 2 (blooming stage), an agent was sprayed at 1.5 mg/mu in the treatment and control groups, with water amounts per mu respectively as follows: 15 L and 30 L (sample concentrations: 0.1 ppm and 0.05 ppm). On September 13, 10 pepper plants with uniform growth were selected from each of the treatment group and the control group, and fruit numbers and single-fruit weights were counted. The whole field was harvested in three batches on August 30, September 13, and September 25, respectively. Yields were subjected to combined statistics and comparison, and results were as follows: […]

[6] = 3 mg/mu sprayed 3 times (0.2, 0.1, 0.1 ppm)
[7] = 1.5 mg/mu sprayed twice (0.1 ppm and 0.05 ppm)

potassium iron chlorin [Example 20]
solubility in water [1]: easily soluble | Relative content ([2]; 1 h): 70.13% | Relative content ([2]; 2 h): 62.66% | Relative content ([2]; 3 h): 59.17% | IC50 for chlorophyllase inhibition activity (chlorophyllase): 5.07 ppm | Adventitious root number (mung bean seedlings; 0.01 ppm): 15.05 root/seedling | Total adventitious root length (mung bean seedlings; 0.01 ppm): 24.56 cm/seedling | Adventitious root number (mung bean seedlings; 0.1 ppm): 14.54 root/seedling | Total adventitious root length (mung bean seedlings; 0.1 ppm): 23.55 cm/seedling | Actual yield per mu (wheat [3]; [6]): 601.5 kg | Ear number per mu (wheat [3]; [6]): 31.9 10,000 | Grain number per ear (wheat [3]; [6]): 35.0 grains/ear | Thousand-grain weight (wheat [3]; [6]): 53.9 g | Yield increase rate per mu (wheat [3]; 3 mg/mu sprayed 3 times, versus clear water): 7.60% | Average germination time (rice; NaCl 0 g/L): 3.10 D | Dry root weight (rice; NaCl 0 g/L): 0.0587 g/plant | Dry seedling weight (rice; NaCl 0 g/L): 0.0543 g | First leaf length (rice; NaCl 0 g/L): 3.84 cm | Germination energy (rice; NaCl 0 g/L): 98.0% | Germination index (rice; NaCl 0 g/L): 52.21% | Germination rate (rice; NaCl 0 g/L): 98.0% | Root length (rice; NaCl 0 g/L): 7.00 cm | Root number (rice; NaCl 0 g/L): 8.67 roots/plant | Root weight-promoting speed (rice; NaCl 0 g/L): 4.19 mg/day | Root-shoot ratio (rice; NaCl 0 g/L): 1.082 | Seedling height (rice; NaCl 0 g/L): 6.83 cm | Seedling weight-promoting rate (rice; NaCl 0 g/L): 3.88 mg/day | Vitality index (rice; NaCl 0 g/L): 16.29% | Increase of root weight-promoting speed (rice; NaCl 0 g/L): 53.04% | Increase of root-shoot ratio (rice; NaCl 0 g/L): 25.31% | Increase of seedling weight-promoting rate (rice; NaCl 0 g/L): 19.27% | Average germination time (rice; NaCl 2.5 g/L): 3.28 D | Dry root weight (rice; NaCl 2.5 g/L): 0.0473 g/plant | Dry seedling weight (rice; NaCl 2.5 g/L): 0.0547 g | First leaf length (rice; NaCl 2.5 g/L): 3.79 cm | Germination energy (rice; NaCl 2.5 g/L): 96.7% | Germination index (rice; NaCl 2.5 g/L): 49.99% | Germination rate (rice; NaCl 2.5 g/L): 97.3% | Root length (rice; NaCl 2.5 g/L): 4.86 cm | Root number (rice; NaCl 2.5 g/L): 7.70 roots/plant | Root weight-promoting speed (rice; NaCl 2.5 g/L): 3.38 mg/day | Root-shoot ratio (rice; NaCl 2.5 g/L): 0.865 | Seedling height (rice; NaCl 2.5 g/L): 6.68 cm | Seedling weight-promoting rate (rice; NaCl 2.5 g/L): 3.90 mg/day | Vitality index (rice; NaCl 2.5 g/L): 14.38% | Increase of root weight-promoting speed (rice; NaCl 2.5 g/L): 23.48% | Increase of root-shoot ratio (rice; NaCl 2.5 g/L): 0.15% | Increase of seedling weight-promoting rate (rice; NaCl 2.5 g/L): 20% | Average germination time (rice; NaCl 4.5 g/L): 3.16 D | Dry root weight (rice; NaCl 4.5 g/L): 0.0480 g/plant | Dry seedling weight (rice; NaCl 4.5 g/L): 0.0580 g | First leaf length (rice; NaCl 4.5 g/L): 3.88 cm | Germination energy (rice; NaCl 4.5 g/L): 97.3% | Germination index (rice; NaCl 4.5 g/L): 50.89% | Germination rate (rice; NaCl 4.5 g/L): 97.3% | Root length (rice; NaCl 4.5 g/L): 5.00 cm | Root number (rice; NaCl 4.5 g/L): 7.17 roots/plant | Root weight-promoting speed (rice; NaCl 4.5 g/L): 3.43 mg/day | Root-shoot ratio (rice; NaCl 4.5 g/L): 0.836 | Seedling height (rice; NaCl 4.5 g/L): 6.71 cm | Seedling weight-promoting rate (rice; NaCl 4.5 g/L): 4.14 mg/day | Vitality index (rice; NaCl 4.5 g/L): 15.12% | Increase of root weight-promoting speed (rice; NaCl 4.5 g/L): 25.22% | Increase of root-shoot ratio (rice; NaCl 4.5 g/L): −3.17% | Increase of seedling weight-promoting rate (rice; NaCl 4.5 g/L): 27.32% | Change rate of chlorophyll content (rice seedlings; 0.002 ppm, Day 3): 9.49% | Chlorophyll content in rice leaves (rice seedlings; 0.002 ppm, Day 3): 3.69 mg/g | Change rate of chlorophyll content (rice seedlings; 0.002 ppm, Day 6): 42.96% | Chlorophyll content in rice leaves (rice seedlings; 0.002 ppm, Day 6): 3.86 mg/g | Change rate of chlorophyll content (rice seedlings; 0.05 ppm, Day 3): 29.67% | Chlorophyll content in rice leaves (rice seedlings; 0.05 ppm, Day 3): 4.37 mg/g | Change rate of chlorophyll content (rice seedlings; 0.05 ppm, Day 6): 63.70% | Chlorophyll content in rice leaves (rice seedlings; 0.05 ppm, Day 6): 4.42 mg/g

C=CC1=C(C)c2cc3[n-]c(cc4nc(cc5[n-]c(cc1n2)c(C)c5C=C)C(C)=C4CCC(=O)[O-])c(CCC(=O)[O-])c3C.[Cl-].[Fe+3].[K+].[K+] [Example 10, potassium chlorhematin]
solubility in water [1]: easily soluble | pH ([4]; 0.1 ppm in purified water): (6.85) | pH ([4]; 1.0 ppm in purified water): (6.90) | pH ([4]; 10.0 ppm in purified water): (7.33) | pH ([4]; 20.0 ppm in purified water): (7.45) | pH ([4]; 30.0 ppm in purified water): (7.57) | pH ([4]; 100.0 ppm in purified water): (8.10) | pH ([4]; 1000.0 ppm in purified water): (9.43) | pH ([4]; 10000.0 ppm in purified water): (10.21) | Relative content ([2]; 1 h): 90.91% | Relative content ([2]; 2 h): 90.08% | Relative content ([2]; 3 h): 81.82% | Germination rate of wheat (wheat [5]; 0.0025 ppm): 94.0% | Root length (wheat [5]; 0.0025 ppm): 10.01 cm | Root number (wheat [5]; 0.0025 ppm): 5.1 | Root weight (wheat [5]; 0.0025 ppm): 0.1163 g | Seedling height (wheat [5]; 0.0025 ppm): 9.42 cm | Seedling weight (wheat [5]; 0.0025 ppm): 0.298 g | Germination rate of wheat (wheat [5]; 0.0250 ppm): 94.7% | Root length (wheat [5]; 0.0250 ppm): 9.74 cm | Root number (wheat [5]; 0.0250 ppm): 5.2 | Root weight (wheat [5]; 0.0250 ppm): 0.1143 g | Seedling height (wheat [5]; 0.0250 ppm): 9.56 cm | Seedling weight (wheat [5]; 0.0250 ppm): 0.286 g | Germination rate of wheat (wheat [5]; 0.2500 ppm): 97.3% | Root length (wheat [5]; 0.2500 ppm): 9.15 cm | Root number (wheat [5]; 0.2500 ppm): 5.3 | Root weight (wheat [5]; 0.2500 ppm): 0.1036 g | Seedling height (wheat [5]; 0.2500 ppm): 7.51 cm | Seedling weight (wheat [5]; 0.2500 ppm): 0.211 g | Adventitious root number (mung bean seedlings; 0.01 ppm): 14.85 root/seedling | Total adventitious root length (mung bean seedlings; 0.01 ppm): 26.83 cm/seedling | Adventitious root number (mung bean seedlings; 0.1 ppm): 14.02 root/seedling | Total adventitious root length (mung bean seedlings; 0.1 ppm): 25.21 cm/seedling | Average fruit number (pepper; [7]): 50.5 fruits/plant | Single-fruit weight (pepper; [7]): 18.5 g/fruit | Yield per mu (pepper; [7]): 2975.0 kg/mu | Yield increase rate (pepper; 1.5 mg/mu sprayed twice, versus clear water): 10.59%
